According to PubChem BioAssay (NCI):
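1) Cells in 96-well plates. 2) Compound, 48 h, 5 concentrations. 3) Linear interpolation between surrounding doses. 4) Unreached endpoint = highest concentration. GI50: concentration for 50% inhibition of growth. TGI denotes the concentration required for complete inhibition of growth.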

Key:
Experiment in all cases: NCI-60 cell line screen, 48 h
NCI-H226 lung = system: NCI-H226 lung
U251 CNS = system: U251 CNS
SK-MEL-5 melanoma = system: SK-MEL-5 melanoma
MCF7 breast = system: MCF7 breast
SK-MEL-28 melanoma = system: SK-MEL-28 melanoma
SK-OV-3 ovarian = system: SK-OV-3 ovarian
UACC-257 melanoma = system: UACC-257 melanoma
HOP-62 NSCLC = system: HOP-62 NSCLC
HCT-116 colon = system: HCT-116 colon
NCI-H460 lung = system: NCI-H460 lung
ACHN renal = system: ACHN renal
SF-268 CNS = system: SF-268 CNS
HT29 colon = system: HT29 colon
M14 melanoma = system: M14 melanoma
NCI/ADR-RES ovarian = system: NCI/ADR-RES ovarian
HS 578T breast = system: HS 578T breast
HCC-2998 colon = system: HCC-2998 colon
SK-MEL-2 melanoma = system: SK-MEL-2 melanoma
786-0 renal = system: 786-0 renal
HCT-15 colon = system: HCT-15 colon
PC-3 prostate = system: PC-3 prostate
SF-539 CNS = system: SF-539 CNS
NCI-H23 lung = system: NCI-H23 lung
SN12C renal = system: SN12C renal
BT-549 breast = system: BT-549 breast
CCRF-CEM leukemia = system: CCRF-CEM leukemia
A549 NSCLC = system: A549 NSCLC
CAKI-1 renal = system: CAKI-1 renal
MOLT-4 leukemia = system: MOLT-4 leukemia
OVCAR-5 ovarian = system: OVCAR-5 ovarian
UO-31 renal = system: UO-31 renal
UACC-62 melanoma = system: UACC-62 melanoma
TK-10 renal = system: TK-10 renal
DU-145 prostate = system: DU-145 prostate
SW-620 colon = system: SW-620 colon
COLO 205 colon = system: COLO 205 colon
RPMI-8226 leukemia = system: RPMI-8226 leukemia
A498 renal = system: A498 renal
HL-60(TB) leukemia = system: HL-60(TB) leukemia
SNB-19 CNS = system: SNB-19 CNS
MDA-MB-435 = system: MDA-MB-435
SF-295 CNS = system: SF-295 CNS
HOP-92 NSCLC = system: HOP-92 NSCLC
SR leukemia = system: SR leukemia
OVCAR-8 ovarian = system: OVCAR-8 ovarian
T-47D breast = system: T-47D breast
IGROV1 ovarian = system: IGROV1 ovarian
EKVX NSCLC = system: EKVX NSCLC
MALME-3M melanoma = system: MALME-3M melanoma
MDA-MB-231 breast = system: MDA-MB-231 breast
NCI-H522 lung = system: NCI-H522 lung
OVCAR-4 ovarian = system: OVCAR-4 ovarian
K-562 leukemia = system: K-562 leukemia
SNB-75 CNS = system: SNB-75 CNS
OVCAR-3 ovarian = system: OVCAR-3 ovarian
LOX IMVI melanoma = system: LOX IMVI melanoma
RXF 393 renal = system: RXF 393 renal
KM12 colon = system: KM12 colon

Work on `COc1ccc2nc(-c3ccccc3)cc(Nc3cccc(/C(C)=N\O)c3)c2c1` yielded a GI50 (NCI-H226 lung) of 3.18 µM, a TGI (NCI-H226 lung) of 11.1 µM and a GI50 (U251 CNS) of 6.05 µM. The TGI (U251 CNS) was 48.5 µM, the GI50 (SK-MEL-5 melanoma) was 13.2 µM and the TGI (SK-MEL-5 melanoma) was 41 µM. For the same compound, the GI50 (MCF7 breast) was 16.8 µM, the TGI (MCF7 breast) was over 100 µM and the GI50 (SK-MEL-28 melanoma) was 57.7 µM. It also gave a TGI (SK-MEL-28 melanoma) of over 100 µM, a GI50 (SK-OV-3 ovarian) of 6.65 µM and a TGI (SK-OV-3 ovarian) of 80.6 µM. It also gave a GI50 (UACC-257 melanoma) of 19.4 µM, a TGI (UACC-257 melanoma) of over 100 µM and a GI50 (HOP-62 NSCLC) of 1.84 µM. For the same compound, the TGI (HOP-62 NSCLC) was 4.27 µM, the GI50 (HCT-116 colon) was 2.58 µM and the TGI (HCT-116 colon) was over 100 µM. The GI50 (NCI-H460 lung) was 6.84 µM, the TGI (NCI-H460 lung) was over 100 µM and the GI50 (ACHN renal) was 7.29 µM. For the same compound, the TGI (ACHN renal) was over 100 µM, the GI50 (SF-268 CNS) was 3.34 µM and the TGI (SF-268 CNS) was 9.06 µM. The GI50 (HT29 colon) was 28.2 µM, the TGI (HT29 colon) was over 100 µM and the GI50 (M14 melanoma) was 5.04 µM. For the same compound, the TGI (M14 melanoma) was over 100 µM, the GI50 (NCI/ADR-RES ovarian) was 6.35 µM and the TGI (NCI/ADR-RES ovarian) was over 100 µM. For the same compound, the GI50 (HS 578T breast) was 9.05 µM, the TGI (HS 578T breast) was 79.2 µM and the GI50 (HCC-2998 colon) was 46.2 µM. For the same compound, the TGI (HCC-2998 colon) was over 100 µM, the GI50 (SK-MEL-2 melanoma) was 55.7 µM and the TGI (SK-MEL-2 melanoma) was over 100 µM. For the same compound, the GI50 (786-0 renal) was 2.09 µM, the TGI (786-0 renal) was 5.15 µM and the GI50 (HCT-15 colon) was 29.8 µM. The TGI (HCT-15 colon) was over 100 µM, the GI50 (PC-3 prostate) was 4.72 µM and the TGI (PC-3 prostate) was 26.3 µM. It also gave a GI50 (SF-539 CNS) of 6.61 µM, a TGI (SF-539 CNS) of 24.8 µM and a GI50 (NCI-H23 lung) of 22.4 µM. It also gave a TGI (NCI-H23 lung) of over 100 µM, a GI50 (SN12C renal) of 6.05 µM and a TGI (SN12C renal) of 35.4 µM. It also gave a GI50 (BT-549 breast) of 32.8 µM, a TGI (BT-549 breast) of over 100 µM and a GI50 (CCRF-CEM leukemia) of 58.7 µM. For the same compound, the TGI (CCRF-CEM leukemia) was over 100 µM, the GI50 (A549 NSCLC) was 4.67 µM and the TGI (A549 NSCLC) was over 100 µM. For the same compound, the GI50 (CAKI-1 renal) was 3.23 µM, the TGI (CAKI-1 renal) was 12.9 µM and the GI50 (MOLT-4 leukemia) was 6.18 µM. The TGI (MOLT-4 leukemia) was over 100 µM, the GI50 (OVCAR-5 ovarian) was 33.7 µM and the TGI (OVCAR-5 ovarian) was over 100 µM. It also gave a GI50 (UO-31 renal) of 9.66 µM, a TGI (UO-31 renal) of over 100 µM and a GI50 (UACC-62 melanoma) of 5.42 µM. For the same compound, the TGI (UACC-62 melanoma) was 30.5 µM, the GI50 (TK-10 renal) was 2.56 µM and the TGI (TK-10 renal) was 9.69 µM. The GI50 (DU-145 prostate) was 6.46 µM, the TGI (DU-145 prostate) was 31.9 µM and the GI50 (SW-620 colon) was 19.4 µM. The TGI (SW-620 colon) was over 100 µM, the GI50 (COLO 205 colon) was 21.4 µM and the TGI (COLO 205 colon) was over 100 µM. The GI50 (RPMI-8226 leukemia) was 4.89 µM, the TGI (RPMI-8226 leukemia) was over 100 µM and the GI50 (A498 renal) was 11.8 µM. For the same compound, the TGI (A498 renal) was 37.3 µM, the GI50 (HL-60(TB) leukemia) was over 100 µM and the TGI (HL-60(TB) leukemia) was over 100 µM. The GI50 (SNB-19 CNS) was 32.9 µM, the TGI (SNB-19 CNS) was over 100 µM and the GI50 (MDA-MB-435) was 2.5 µM. It also gave a TGI (MDA-MB-435) of 7.96 µM, a GI50 (SF-295 CNS) of 2.05 µM and a TGI (SF-295 CNS) of 5.13 µM. For the same compound, the GI50 (HOP-92 NSCLC) was 1.93 µM, the TGI (HOP-92 NSCLC) was 5.66 µM and the GI50 (SR leukemia) was 3.36 µM. For the same compound, the TGI (SR leukemia) was over 100 µM, the GI50 (OVCAR-8 ovarian) was 3 µM and the TGI (OVCAR-8 ovarian) was over 100 µM. It also gave a GI50 (T-47D breast) of 4.01 µM, a TGI (T-47D breast) of over 100 µM and a GI50 (IGROV1 ovarian) of 24.4 µM. The TGI (IGROV1 ovarian) was over 100 µM, the GI50 (EKVX NSCLC) was 19.2 µM and the TGI (EKVX NSCLC) was 86.9 µM. It also gave a GI50 (MALME-3M melanoma) of 4.29 µM, a TGI (MALME-3M melanoma) of 20.2 µM and a GI50 (MDA-MB-231 breast) of 2.54 µM. For the same compound, the TGI (MDA-MB-231 breast) was 7.62 µM, the GI50 (NCI-H522 lung) was 73.9 µM and the TGI (NCI-H522 lung) was over 100 µM. It also gave a GI50 (OVCAR-4 ovarian) of 5.65 µM, a TGI (OVCAR-4 ovarian) of over 100 µM and a GI50 (K-562 leukemia) of 4.12 µM. For the same compound, the TGI (K-562 leukemia) was over 100 µM, the GI50 (SNB-75 CNS) was 4.49 µM and the TGI (SNB-75 CNS) was over 100 µM.

Work on `O=c1[nH]c(=O)n(C2CC(O)C(CO)O2)cc1OC/C=C/Cc1ccccc1` (stereo not given) yielded a TGI (NCI-H226 lung) of over 100 µM, a TGI (U251 CNS) of over 100 µM and a TGI (SK-MEL-5 melanoma) of over 100 µM. For the same compound, the TGI (MCF7 breast) was over 100 µM, the TGI (SK-MEL-28 melanoma) was over 100 µM and the TGI (SK-OV-3 ovarian) was over 100 µM. For the same compound, the TGI (UACC-257 melanoma) was over 100 µM, the TGI (HOP-62 NSCLC) was over 100 µM and the TGI (HCT-116 colon) was over 100 µM. The TGI (NCI-H460 lung) was over 100 µM, the TGI (ACHN renal) was over 100 µM and the TGI (SF-268 CNS) was over 100 µM. It also gave a TGI (HT29 colon) of over 100 µM, a TGI (M14 melanoma) of over 100 µM and a TGI (NCI/ADR-RES ovarian) of over 100 µM. The TGI (OVCAR-3 ovarian) was over 100 µM, the TGI (HS 578T breast) was over 100 µM and the TGI (786-0 renal) was over 100 µM. It also gave a TGI (HCT-15 colon) of over 100 µM, a TGI (PC-3 prostate) of over 100 µM and a TGI (NCI-H23 lung) of over 100 µM. For the same compound, the TGI (SN12C renal) was over 100 µM, the TGI (BT-549 breast) was over 100 µM and the TGI (LOX IMVI melanoma) was over 100 µM. It also gave a TGI (CCRF-CEM leukemia) of over 100 µM, a TGI (A549 NSCLC) of over 100 µM and a TGI (CAKI-1 renal) of over 100 µM. For the same compound, the TGI (MOLT-4 leukemia) was over 100 µM, the TGI (OVCAR-5 ovarian) was over 100 µM and the TGI (UO-31 renal) was over 100 µM. For the same compound, the TGI (UACC-62 melanoma) was over 100 µM, the TGI (TK-10 renal) was over 100 µM and the TGI (DU-145 prostate) was over 100 µM. It also gave a TGI (COLO 205 colon) of over 100 µM, a TGI (RPMI-8226 leukemia) of over 100 µM and a TGI (HL-60(TB) leukemia) of over 100 µM. It also gave a TGI (SNB-19 CNS) of over 100 µM, a TGI (RXF 393 renal) of over 100 µM and a TGI (MDA-MB-435) of over 100 µM. For the same compound, the TGI (SF-295 CNS) was over 100 µM, the TGI (SR leukemia) was over 100 µM and the TGI (OVCAR-8 ovarian) was over 100 µM. For the same compound, the TGI (KM12 colon) was over 100 µM, the TGI (T-47D breast) was over 100 µM and the TGI (IGROV1 ovarian) was over 100 µM. For the same compound, the TGI (EKVX NSCLC) was over 100 µM, the TGI (MALME-3M melanoma) was over 100 µM and the TGI (MDA-MB-231 breast) was over 100 µM. The TGI (NCI-H522 lung) was over 100 µM, the TGI (OVCAR-4 ovarian) was over 100 µM and the TGI (K-562 leukemia) was over 100 µM. For the same compound, the TGI (SNB-75 CNS) was over 100 µM.
